# Reference: patent US20220354929A1, “PEPTIDES AND USES THEREOF” (LATERAL IP PTY LTD, priority 2019, published 2022)
# Where “and” joins values, the source holds several entries; their conditions need not be identical. Equal entries are not always repeated. Entries after “also recorded” stand apart in the source; their conditions may differ.
# What was measured:
# dorsal horn neurones = test: whole-cell patch clamp recording in spinal cord slices from Chung models of neuropathic pain: membrane properties of dorsal horn neurones; assay type: cell-based, rat
# From the text: (§1) An in vitro spinal cord slice with intact dorsal root afferents combined with single-cell whole-cell patch clamp electrophysiological recording techniques was used to assess the electrophysiological properties of the peptides having the amino acid sequence of SEQ ID NO:2, 3, 4 and 5.
# The spinal nerve ligation model (Chung model) was first reported by Kim and Chung (1992; Pain, 50(3):355-63) and involves a single tight ligation of the L5 spinal nerve. […] This model has been used as a “gold standard” model for assessing the efficacy of novel compounds targeting neuropathic pain.
# Adult male Sprague-Dawley rats, 8-9 weeks old, weighing 220-250 g at the time of surgery, were purchased from Charles River UK Ltd. The animals were housed in groups of 4 in an air-conditioned room on a 12-hour light/dark cycle. Food and water were available ad libitum. They were allowed to acclimatise to the experimental environment for three days by leaving them on a raised metal mesh for at least 40 min. The baseline paw withdrawal threshold (PWT) was examined using a series of graduated von Frey hairs for 3 consecutive days before surgery and re-assessed on the 6th to 8th day after surgery and on the 12th to 14th day after surgery before drug dosing. Each rat was anaesthetized with 5% isoflurane mixed with oxygen (2L per min) followed by an intramuscular (i.m.) injection of ketamine 90 mg/kg plus xylazine 10 mg/kg. The back was shaved and sterilized with povidone-iodine. The animal was placed in a prone position and a para-medial incision was made on the skin covering the L4-6 level. The L5 spinal nerve was carefully isolated and tightly ligated with 6/0 silk suture. The wound was then closed in layers after a complete hemostasis. A single dose of antibiotics (Amoxipen, 15 mg/rat, i.p.) was routinely given for prevention of infection after surgery. The animals were placed in a temperature-controlled recovery chamber until fully awake before being returned to their home cages.
# (§2) Chung model rats, aged 8 to 12 weeks, were housed in an air-conditioned room on a 12 hour light/dark cycle with food and water available ad libitum. The rats were terminally anaesthetized using isofluorane and decapitated. The vertebral column, rib cage and surrounding tissues were rapidly removed and pinned under ice-cold (<4° C.), high sucrose-containing artificial cerebrospinal fluid (aCSF) comprising: 127 mM sucrose, 1.9 mM KCl, 1.2 mM KH2PO4, 0.24 mM CaCl2, 3.9 mM MgCl2, 26 mM NaHCO3, 10 mM D-glucose and 0.5 mM ascorbic acid. A laminectomy was performed and the spinal cord and associated roots gently dissected and teased out of the spinal column and surrounding tissues. Dura and pia mater and ventral roots were subsequently removed with fine forceps and the spinal cord hemisected. Care was taken to ensure dorsal root inputs to the spinal cord were maintained. The hemisected spinal cord-dorsal root preparations were secured to a tissue slicer and spinal cord slices (400 to 450 μm thick) with dorsal roots attached were cut in chilled (<4° C.) high sucrose aCSF using a Leica VT1000s microtome.
# (§3) Slices were transferred to a small beaker containing ice cold aCSF with 127 mM NaCl, 1.9 mM KCl, 1.2 mM KH2PO4, 1.3 mM MgCl2, 2.4 mM CaCl2, 26 mM NaHCO3 and 10 mM D-glucose, and rapidly warmed to 35° C. ±1° C. in a temperature-controlled water bath over a 20 minute period, then subsequently removed and maintained at room temperature (22° C. ±2° C.) prior to electrophysiological recording. Electrophysiological recording was performed in aCSF comprising 127 mM NaCl, 1.9 mM KCl, 1.2 mM KH2PO4, 1.3 mM MgCl2, 2.4 mM CaCl2, 26 mM NaHCO3 and 10 mM D-glucose.
# Whole-cell recordings were performed at 34-35° C. from Lamina I or II neurones in the dorsal horn of the spinal cord slices using Axopatch 1D and/or Multiclamp 700B amplifies and using the “blind” version of the patch-clamp technique. […]
# [1] = system: dorsal root afferent-mediated synaptic inputs to dorsal horn neurones; test: whole-cell recording in spinal cord slices from Chung models: dorsal root afferent-mediated synaptic inputs (evoked EPSPs/IPSPs); assay type: cell-based, rat
# Procedure: as §1, §2, §3
# Whole-cell recordings were performed at 34-35° C. from Lamina I or II neurones in the dorsal horn of the spinal cord slices using Axopatch 1D and/or Multiclamp 700B amplifies and using the “blind” version of the patch-clamp technique.
# Patch pipettes were pulled from thin-walled borosilicate glass with resistances of between 3 and 8 MS2 when filled with intracellular solution (140 mM potassium gluconate, 10 mM KCl, 1 mM EGTA-Na, 10 mM HEPES, 4 mM Na2ATP, 0.3 mM Na-GTP). The peptides of SEQ ID NOs:2, 3, 4 or 5 (LAT7771, LAT7772, LAT7773 or LAT7774) were diluted in the tissue bath at a concentration of 5 μM.
# A concentric bipolar stimulating electrode was placed appropriately either on the dorsal root or dorsal root entry zone to evoke postsynaptic potentials/currents in recorded cells (see FIG. 1). […] EPSPs/EPSCs were confirmed as monosynaptic on the basis of being characterised by a constant latency and rise-time with few failures.
# Recordings were monitored on an oscilloscope and stored on digital audio tapes for later off-line analysis. In addition, data were low-pass filtered at 2-5 kHz, (1 kHz for voltage-clamp data), digitized at 2-10 kHz and stored on a PC running pCLAMP 10 data acquisition software (Axon Instruments). Analysis of electrophysiological data was carried out using Clampfit 10 software.
# [2] = system: Chung model of neuropathic pain; test: paw withdrawal threshold (von Frey) in Chung model of neuropathic pain, oral or intramuscular administration; assay type: in vivo, rat; conditions: for paw withdrawal threshold (PWT) / reversal of mechanical allodynia: 2 hours after administration, ipsilateral side
# From the text: Chung model of neuropathic pain was used to compare the in vivo efficacy of LAT8881 and LAT7771 administered orally or intramuscularly.
# The spinal nerve ligation model (Chung model) was first reported by Kim and Chung (1992; Pain, 50(3):355-63) and involves a single tight ligation of the L5 spinal nerve. […] This model has been used as a “gold standard' model for assessing the efficacy of novel compounds targeting neuropathic pain.
# Adult male Sprague-Dawley rats, 8-9 weeks old, weighing 220-250 g at the time of surgery, were anaesthetised with 3% isoflurane mixed with oxygen followed by an intramuscular injection of a mixture of ketamine and xylazine. The back was shaved and sterilised with povidone-iodine soaked cotton balls. The L5 spinal nerve was carefully isolated and tightly located with 6/0 silk suture and the wound was closed in layers. The single-dose antibiotics (Amoxipen, 100 mg/kg, i.p.) was routinely given for prevention of infection after surgery.
# The animals were placed in individual Perspex boxes on a raised metal mesh for at least 40 minutes. Starting with the filament of lowest force (1 g), each filament was applied perpendicularly to the centre of the ventral surface of the paw until slightly bent for 6 seconds. If the animal withdrew or lifted its paw upon stimulation, a von Frey hair with force immediately lower than that tested was subsequently used. If no response was observed, then a hair with force immediately higher was tested. The lowest amount of force required to induce reliable responses (positive in 2 out of 3 trials) was recorded as the value of […] (PWT).
# PWT was assessed once daily for three days before surgery and once a week for monitoring the development of mechanical allodynia.
# All drug tests were carried out on the 13th to 17th day after surgery. All drug dosing was ‘blindly’ carried out by a second experimenter. The test compounds were administered and PWT was assessed before and 2 hours following drug or vehicle (5% DMSO) administration.
# [3] = peptide 5 μM, dorsal root stimulation 0.1 Hz
# [4] = LAT8881, concentration not given, one neurone
sequence,measurement,setting,value
"CRIIHNNNC [LAT7771, C-terminal fragment of human prolactin spanning residues 219-227 of human prolactin precursor]",effect on inward rectification (in words),dorsal horn neurones; peptide 5 μM,enhancement or increase in the strength of inward rectification; also recorded: enhanced inward rectification
same,effect on membrane potential / postsynaptic membrane properties (in words),dorsal horn neurones; peptide 5 μM,little effect on a further 3 dorsal horn neurones; also recorded: principally induced membrane depolarisation; also recorded: membrane depolarisation and an increase in spontaneous firing; also recorded: minimal membrane depolarisation; also recorded: little or no effect on postsynaptic properties
same,effect on neuronal input resistance (in words),dorsal horn neurones; peptide 5 μM,little change in neuronal input resistance; also recorded: marginal increase in neuronal input resistance
same,change in neuronal input resistance,dorsal horn neurones; peptide 5 μM vs control,15.8 ± 36.1 MΩ
same,"ΔIR, change in neuronal input resistance","dorsal horn neurones; peptide 5 μM vs control, table prints control minus drug, text the magnitude",−15.8 MΩ
same,"Input Resistance, mean in presence of peptide","dorsal horn neurones; peptide 5 μM, all cells",447.6 MΩ
same,neuronal input resistance in the presence of peptide,"dorsal horn neurones; peptide 5 μM, all cells",447.6±119.4 MS2
same,"Membrane Potential, mean in presence of peptide","dorsal horn neurones; peptide 5 μM, all cells, ipsilateral to injury",−53.8±2.8 mV and −53.8 mV
same,"Normalised Input Resistance, mean in presence of peptide","dorsal horn neurones; peptide 5 μM, control = 100",94.8
same,"Normalised Input Resistance, ΔIR","dorsal horn neurones; peptide 5 μM, control = 100",5.2
same,reversal potential of peptide-induced response (intersection of VI relations),"dorsal horn neurones; peptide 5 μM, individual neurones",−55 mV (2×) and −45 mV and −40 mV
same,"Normalised Membrane Potential, mean in presence of peptide","dorsal horn neurones; peptide 5 μM, rest = 100",94.8
same,"Normalised Membrane Potential, ΔVm","dorsal horn neurones; peptide 5 μM, rest = 100",5.2
same,effect on dorsal root-evoked EPSPs / excitatory synaptic transmission (in words),[1]; [3],"In four neurones, dorsal root evoked EPSPs at a frequency of 0.1 Hz were reduced; also recorded: consistently reduced dorsal root-evoked EPSPs; also recorded: EPSPs were suppressed"
same,effect on dorsal root-evoked IPSPs / inhibitory synaptic transmission (in words),[1]; [3],"In two of these neurones, suppression of EPSPs uncovered or activated IPSPs; also recorded: in two neurones promoted inhibitory synaptic transmission; also recorded: enhanced inhibitory synaptic transmission"
same,effect on dorsal root-evoked IPSPs (in words),"[1]; prolactin 500 nM, 0.1 Hz and 5 Hz",lack of effect
same,paw withdrawal threshold (PWT) / reversal of mechanical allodynia,[2]; 10 mg/kg intramuscularly (IM),significantly increased the PWT
same,paw withdrawal threshold (PWT) / reversal of mechanical allodynia,[2]; 10 mg/kg orally (PO),significantly increased the PWT
same,analgesic properties in vivo,[2]; compared with LAT8881,comparable to that of LAT8881
"YLRIVQCRSVEGSCGF [LAT8881, human growth hormone derived analgesic compound of PCT/AU2019/050020, reference compound]",effect on postsynaptic properties (in words),"dorsal horn neurones; LAT8881, concentration not given, one neurone, after wash of LAT7771",little or no effect on postsynaptic properties
same,effect on dorsal root-evoked EPSPs (in words),[1]; [4],suppressing EPSPs
same,effect on inhibitory synaptic transmission / IPSPs (in words),[1]; [4],partly mimicked by LAT8881; also recorded: enhanced inhibitory synaptic transmission
same,paw withdrawal threshold (PWT) / reversal of mechanical allodynia,[2]; 10 mg/kg intramuscularly (IM),reversed mechanical allodynia; also recorded: significantly increased the PWT
same,paw withdrawal threshold (PWT) / reversal of mechanical allodynia,[2]; 10 mg/kg orally (PO),reversed mechanical allodynia; also recorded: significantly increased the PWT
